Reference: patent US10058587B2, “Peptide composition for cancer treatment by inhibiting TRPV6 calcium channel activity” (priority 2008, dated 2018)
Where no end group is shown, it is not given here.

System: CaOV3 ovarian cancer cell line
Test: Induction of apoptosis (APO-ONE caspase 3/7) and cell viability (CellTiter Blue)
Type: cell-based, human
Design: key to Decline in cell viability: decreased (+); or not (−)
Procedure: CAOV-3 was cultured in Dulbecco's Modified Eagle Medium (4.5 g/L glucose) with 4 mM L-glutamine, 1.5 g/L sodium bicarbonate and 10% (v/v) fetal bovine serum.
The levels of apoptotic induction and cell viability were determined by multiplexing the measurements for single samples. CellTiter Blue and APO-ONE assay systems from Promega allows the determination of cell viability correlated to cell number, and induction of apoptosis. This protocol uses a fluorgenic peptide that contains a peptide recognition-sequence for caspase 3 and caspase 7, […] proteolytic enzymes of the apoptosis cascade. The CellTiter Blue reagent was added to wells in a 96-well plate containing cells under test, immediately after addition of peptide solution or vehicle. About 5000 cells were plated into the wells the day before. At the chosen time (Day 1, Day 2 etc.) the fluorescence was measured at 590 nm (emission) after excitation at 560 nm. The caspase 3/7 activity was measured (485 nm Ex/527 nm Em) in the same wells after adding 120 uL of the Apo-ONE reagent, freeze fracturing at −80° C. for 1 hr, and incubating for 1 hr at room temperature.
For this work, the concentrations of SorC13 and SorC27 used were 0 uM, 1 uM, 10 uM and 100 uM. The experiments extended over a 5 to 7 day period. All measurements were done in quadruplicate with both a blank (no cells) and control (vehicle, no peptide) used to correct the test measurements. The time-response data, and the dose-response data were plotted as means±standard error of the mean. Any statistical comparisons were done with the Student's t-test or by ANOVA analysis over the dose course. The level of statistical significance was considered to be the 95% confidence interval (i.e., p≤0.05).
To compare the effect of the two SorC-peptides against the gold-standard treatment for ovarian cancers SorC13 or SorC27 was compared to treatment with a carboplatin and taxol (CAT) cocktail (10 uM Paclitaxel, 20 mM carboplatin) using the APO-ONE assay, which measures the combined activities of caspase 3 and caspase 7. […]

Sequence: KEFLHPSKVDLPR [SorC13, KEFLHPSKVDLPR]
- apoptosis (treatment:control ratio) compared with CAT cocktail (CAT = 10 uM Paclitaxel, 20 mM carboplatin): produced earlier and more intense apoptosis cascade than the CAT cocktail
- Apoptosis Index (1 = no effect) (Day5, SorC13 100 uM): 2.7
- Decline in cell viability (Day5, SorC13 100 uM): +
